Experimental data published in patent US8349870B2 (priority 2008, dated 2013).
Like-named read-outs stand apart in the source and are kept apart here.

Assays:
Type in all cases: in vivo
Plasmopara viticola = assay: Test A: grape downy mildew, spray after inoculation, visual disease rating (% disease control); settings: 100 = 100% disease control, 0 = no control
Text: General protocol for preparing test suspensions for Test A-C: The test compounds were first dissolved in acetone in an amount equal to 3% of the final volume and then suspended at the desired concentration (in ppm) in acetone and purified water (50/50 mix by volume) containing 250 ppm of the surfactant Trem® 014 (polyhydric alcohol esters). The resulting test suspensions were then used in Tests A-C. Spraying a 200 ppm test suspension to the point of run-off on the test plants was equivalent to a rate of 500 g/ha.
Grape seedlings were inoculated with a spore suspension of Plasmopara viticola (the causal agent of grape downy mildew) and incubated in a saturated atmosphere at 20° C. for 24 h. After a short drying period, the test suspension was sprayed to the point of run-off on the grape seedlings, which were then moved to a growth chamber at 20° C. for 5 days, after which time the grape seedling were placed back into a saturated atmosphere at 20° C. for 24 h. Upon removal, visual disease ratings were made.
Results for Tests A-C are given in Table A. In the table, a rating of 100 indicates 100% disease control and a rating of 0 indicates no disease control (relative to the controls). A dash (-) indicates no test results, “*” indicates compound was tested at 40 ppm and “**” indicates compound was tested at 10 ppm.

Phytophthora infestans [1] = settings: tomato late blight, sprayed the day before inoculation
Phytophthora infestans [2] = settings: tomato late blight, sprayed 17 h after inoculation
[3] = Cmpd No. unmarked, rate not stated in table (b1197 mentions a 200 ppm test suspension)

Molecule	Test A rating (% disease control) (Plasmopara viticola; "*" compound tested at 40 ppm)	Test B rating (% disease control) (Phytophthora infestans [1]; "*" compound tested at 40 ppm)	Test C rating (% disease control) (Phytophthora infestans [2]; "*" compound tested at 40 ppm)	also measured
4-[4-(4,5-dihydro-5-phenyl-3-isoxazoly)-2-thiazolyl]-N-pentyl-1-piperidinecarboxamide [Example 4]	86%	100%	76%	
O=C(C(O)C(F)(F)F)N1CCC(c2nc(C3=NOC(c4c(F)cccc4F)C3)cs2)CC1 (stereo not drawn) [compound 53]		100%	95%	
CC(C)CC(=O)C(=O)N1CCC(c2nc(C3=NOC(c4c(F)cccc4F)C3)cs2)CC1 (stereo not drawn) [compound 69]	99%	84%	64%	
CC(C)C(O)C(=O)N1CCC(c2nc(C3=NOC(c4c(F)cccc4F)C3)cs2)CC1 (stereo not drawn) [compound 49]	97%	98%	100%	
Cc1ccc(C)c(C(=O)C(=O)N2CCC(c3nc(C4=NOC(c5ccccc5F)C4)cs3)CC2)c1 (stereo not drawn) [compound 40]	99%	100%	98%	
CCC(O)C(=O)N1CCC(c2nc(C3=NOC(c4c(F)cccc4F)C3)cs2)CC1 (stereo not drawn) [compound 48]	88%	100%	91%	
CC(=O)C(=O)N1CCC(c2nc(C3=NOC(c4c(F)cccc4F)C3)cs2)CC1 (stereo not drawn) [compound 65]	88%	100%	99%	
Cc1ccc(C)c(S(=O)(=O)NC(=O)N2CCC(c3nc(C4=NOC(c5ccccc5)C4)cs3)CC2)c1 (stereo not drawn) [compound 33]	0%	0%	0%	
CC(=O)NC(=Nc1cc(C)ccc1C)N1CCC(c2nc(C3=NOC(c4ccccc4)C3)cs2)CC1 (stereo not drawn) [compound 27]	4%	99%	58%	
CC(CC(=O)N1CCC(c2nc(C3=NOC(c4ccccc4F)C3)cs2)CC1)C(F)(F)F (stereo not drawn) [Example 6, 1-[4-[4-[4,5-dihydro-5-(2-fluorophenyl)-3-isoxazolyl]-2-thiazolyl]-1-piperidinyl]-4,4,4-trifluoro-3-methyl-1-butanone]				Test A rating (% disease control) (Plasmopara viticola; [3]): 0%; Test B rating (% disease control) (Phytophthora infestans [1]; [3]): 33%; Test C rating (% disease control) (Phytophthora infestans [2]; [3]): 0%
O=C(C(=O)N1CCC(c2nc(C3=NOC(c4c(F)cccc4F)C3)cs2)CC1)c1ccco1 (stereo not drawn) [compound 72]	100%	100%	99%	
CCONC(=Nc1cc(C)ccc1C)N1CCC(c2nc(C3=NOC(c4c(F)cccc4F)C3)cs2)CC1 (stereo not drawn) [compound 39]	99%	100%	97%	
CCCNC(=O)N1CCC(c2nc(C3=NOC(c4ccccc4)C3)cs2)CC1 (stereo not drawn) [compound 14]				Test A rating (% disease control) (Plasmopara viticola; [3]): 88%; Test B rating (% disease control) (Phytophthora infestans [1]; [3]): 100%; Test C rating (% disease control) (Phytophthora infestans [2]; [3]): 99%
CC(C)C(O)C(=O)N1CCC(c2nc(C3=NOC(c4c(F)cccc4F)C3)cs2)CC1 (mixture of isomers) [compound 54]		100%	99%	
O=C(COCC(F)(F)F)N1CCC(c2nc(C3=NOC(c4c(F)cccc4F)C3)cs2)CC1 (stereo not drawn) [compound 74]				Test A rating (% disease control) (Plasmopara viticola; "**" compound tested at 10 ppm): 100%; Test B rating (% disease control) (Phytophthora infestans [1]; "**" compound tested at 10 ppm): 10%; Test C rating (% disease control) (Phytophthora infestans [2]; "**" compound tested at 10 ppm): 97%
CC(C)CC(O)C(=O)N1CCC(c2nc(C3=NOC(c4c(F)cccc4F)C3)cs2)CC1 (mixture of isomers) [compound 56]	98%	84%	50%	

Molecule	Test A rating (% disease control) (Plasmopara viticola; "*" compound tested at 40 ppm)	Test B rating (% disease control) (Phytophthora infestans [1]; "*" compound tested at 40 ppm)	Test C rating (% disease control) (Phytophthora infestans [2]; "*" compound tested at 40 ppm)	also measured
N#CCC(=O)N1CCC(c2nc(C3=NOC(c4c(F)cccc4F)C3)cs2)CC1 (stereo not drawn) [compound 63]	94%	100%	92%	
CC(C)(C)NC(=O)N1CCC(c2nc(C3=NOC(c4ccccc4)C3)cs2)CC1 (stereo not drawn) [compound 16]				Test A rating (% disease control) (Plasmopara viticola; [3]): 86%; Test B rating (% disease control) (Phytophthora infestans [1]; [3]): 100%; Test C rating (% disease control) (Phytophthora infestans [2]; [3]): 95%
methyl 4-[4-(4,5-dihydro-5-phenyl-3-isoxazoly)-2-thiazolyl]-N-(2,5-dimethylphenyl)-1-piperidinecarboximidate [Example 3]	99%	100%	99%	
CCN(CC)C(=O)N1CCC(c2nc(C3=NOC(c4ccccc4)C3)cs2)CC1 (stereo not drawn) [compound 12]				Test A rating (% disease control) (Plasmopara viticola; [3]): 8%; Test B rating (% disease control) (Phytophthora infestans [1]; [3]): 40%; Test C rating (% disease control) (Phytophthora infestans [2]; [3]): 0%
Cc1ccc(C)c(N=C(N)N2CCC(c3nc(C4=NOC(c5c(F)cccc5F)C4)cs3)CC2)c1 (stereo not drawn) [compound 31]	99%	100%	97%	
O=C(NC1CCCC1)N1CCC(c2nc(C3=NOC(c4ccccc4)C3)cs2)CC1 (stereo not drawn) [compound 19]	67%	100%	63%	
CC(=O)OCC(=O)N1CCC(c2nc(C3=NOC(c4c(F)cccc4F)C3)cs2)CC1 (stereo not drawn) [compound 64]	80%	100%	68%	
Cc1ccc(C)c(N=C(C#N)N2CCC(c3nc(C4=NOC(c5ccccc5)C4)cs3)CC2)c1 (stereo not drawn) [compound 32]	31%	58%	0%	
Cc1ccc(C)c(N=C(N(C)C)N2CCC(c3nc(C4=NOC(c5c(F)cccc5F)C4)cs3)CC2)c1 (stereo not drawn) [compound 38]	8%	33%	0%	
Cc1ccc(C)c(C(=O)NC(=O)N2CCC(c3nc(C4=NOC(c5c(F)cccc5F)C4)cs3)CC2)c1 (stereo not drawn) [compound 36]	0%	99%	99%	
CSC(=Nc1cc(C)ccc1C)N1CCC(c2nc(C3=NOC(c4ccccc4)C3)cs2)CC1 (stereo not drawn) [Example 1, methyl 4-[4-(4,5-dihydro-5-phenyl-3-isoxazolyl)-2-thiazolyl]-N-(2,5-dimethylphenyl)-1-piperidinecarboximidothioate]	96%	97%	53%	
O=C(CC1CCCC(C(F)(F)F)C1)N1CCC(c2nc(C3=NOC(c4c(F)cccc4F)C3)cs2)CC1 (stereo not drawn) [compound 76]	66%	67%	0%	
CCC(=O)C(=O)N1CCC(c2nc(C3=NOC(c4c(F)cccc4F)C3)cs2)CC1 (stereo not drawn) [compound 66]		100%	99%	
CCCCCCC(O)C(=O)N1CCC(c2nc(C3=NOC(c4c(F)cccc4F)C3)cs2)CC1 (stereo not drawn) [compound 61]		100%	47%	
CCCCC(O)C(=O)N1CCC(c2nc(C3=NOC(c4c(F)cccc4F)C3)cs2)CC1 (stereo not drawn) [compound 58]		100%	99%	
CC(C)CC(O)C(=O)N1CCC(c2nc(C3=NOC(c4c(F)cccc4F)C3)cs2)CC1 (stereo not drawn) [compound 57]		100%	97%	
